The test system of this experiment is human monocytic leukemia U937 cells. Kind of experiment: necroptosis assay in U937 cells. Format: cell-based. Particulars: Homo sapiens, U-937, U937 cells; viability by cellular ATP (Cell Titer-Glo); read-out: mean pIC50, inhibition of necrosis in U937 cells (converted). Here is the method:
The efficacy of RIP1 inhibitors can be tested […] in vitro using a human monocytic leukemia U937 or mouse L929 fibrosarcoma cells in a necroptosis assay. As determined using the method described in He, S. et al. 2009. Cell 137(6):1100-1111 and International Patent Appln. No. PCT/IB2014/059004, now, International Patent Appln. Pub.
Viability was measured by quantitating cellular levels of ATP using the Cell Titer-Glo kit. All data are means±standard deviation of the mean.

In the case of `O=C(c1nccs1)N1CCC(C(=O)N2N=CCC2c2ccccc2)CC1` (centres unmarked) [Example 112, (5-phenyl-4,5-dihydro-1H-pyrazol-1-yl)(1-(thiazole-2-carbonyl)piperidin-4-yl)methanone], the IC50 is 1 to 100 nM.

`Cc1ccc(C2CC=NN2C(=O)C2CCN(c3ncc(F)cn3)CC2)cn1` (centres unmarked) [Example 187, (1-(5-fluoropyrimidin-2-yl)piperidin-4-yl)(5-(6-methylpyridin-3-yl)-4,5-dihydro-1H-pyrazol-1-yl)methanone]: the IC50 is 1 to 100 nM.

For the compound `CC(C)(C)C(=O)N1N=CCC1c1cccc(C#N)c1` (centres unmarked) [Example 80, 3-(1-pivaloyl-4,5-dihydro-1H-pyrazol-5-yl)benzonitrile], the IC50 is 1 to 100 nM.

Consider `CC1=NN(C(=O)C2CCN(c3ncc(F)cn3)CC2)C(c2ccccc2)C1` (centres unmarked) [Example 87, (1-(5-fluoro-pyrimidin-2-yl)-piperidin-4-yl)(3-methyl-5-phenyl-4,5-dihydro-1H-pyrazol-1-yl)-methanone], for which the IC50 is 1 to 100 nM.

Consider `CC(C)(C)C(=O)N1N=CC[C@H]1c1cccnc1` [Example 42, (S)-2,2-dimethyl-1-(5-(pyridin-3-yl)-4,5-dihydro-1H-pyrazol-1-yl)-propan-1-one], for which the IC50 was ~251 nM.

With `O=C(c1ccno1)N1CCC(C(=O)N2N=CCC2c2ccccc2)CC1` (centres unmarked) [Example 151, isoxazol-5-yl(4-(5-phenyl-4,5-dihydro-1H-pyrazole-1-carbonyl)piperidin-1-yl)methanone], the IC50 is 1 to 100 nM.

With `O=C(c1ncco1)N1CCC(C(=O)N2N=CCC2c2ccccc2)CC1` (centres unmarked) [Example 148, oxazol-2-yl(4-(5-phenyl-4,5-dihydro-1H-pyrazole-1-carbonyl)piperidin-1-yl)methanone], the IC50 is 1 to 100 nM.

In the case of `CC(C)(C)C(=O)N1N=CCC1c1cncc(F)c1` (centres unmarked) [Example 14, 1-(5-(5-fluoro-pyridin-3-yl)-4,5-dihydro-1H-pyrazol-1-yl)-2,2-dimethyl-propan-1-one], the IC50 is 1 to 100 nM.

Consider `Cc1ccc(C2CC=NN2C(=O)C(C)(C)C)cc1` (centres unmarked) [Example 58, 2,2-dimethyl-1-(5-(p-tolyl)-4,5-dihydro-1H-pyrazol-1-yl)propan-1-one], for which the IC50 is 1 to 100 nM.

Regarding `O=C(C1CCN(c2ccccn2)CC1)N1N=CCC1c1ccccc1` (centres unmarked) [Example 176, (5-phenyl-4,5-dihydro-1H-pyrazol-1-yl)(1-(pyridin-2-yl)piperidin-4-yl)methanonc 2,2,2-trifluoroacctate], the IC50 was 1 to 100 nM.

For the compound `O=C(C1CCN(c2ncccn2)CC1)N1N=CCC1c1ccccc1` (centres unmarked) [Example 171, (5-phenyl-4,5-dihydro-1H-pyrazol-1-yl)(1-(pyrimidin-2-yl)piperidin-4-yl)methanone], the IC50 is 1 to 100 nM.

As for `O=C(c1ccccc1)N1CCC(C(=O)N2N=CCC2c2ccccc2)CC1` (centres unmarked) [Example 164, (1-benzoylpiperidin-4-yl)(5-phenyl-4,5-dihydro-1H-pyrazol-1-yl)methanone], the IC50 is 1 to 100 nM.

Regarding `Cc1ncc(C(=O)N2CCC(C(=O)N3N=CCC3c3ccccc3)CC2)s1` (centres unmarked) [Example 124, (2-methylthiazol-5-yl)(4-(5-phenyl-4,5-dihydro-1H-pyrazole-1-carbonyl)piperidin-1-yl)methanone], the IC50 is 1 to 100 nM.

In the case of `Cc1cccc(C(=O)N2N=CCC2c2ccccc2)c1` (centres unmarked) [Example 23, (5-phenyl-4,5-dihydro-1H-pyrazol-1-yl)(m-tolyl) methanone], the IC50 was ~501 nM.

With `CC(C)(C)C(=O)N1N=CC[C@H]1c1ccc(C#N)cc1` [Example 79, (S)-4-(1-pivaloyl-4,5-dihydro-1H-pyrazol-5-yl)-benzonitrile], the IC50 was 1 to 100 nM.

For the compound `O=C(c1n[nH]c2ccccc12)N1CCC(C(=O)N2N=CCC2c2ccccc2)CC1` (centres unmarked) [Example 140, (1-(1H-indazole-3-carbonyl)piperidin-4-yl)(5-phenyl-4,5-dihydro-1H-pyrazol-1-yl)methanone], the IC50 is 1 to 100 nM.

On to `O=C(C1CCN(c2ccccc2)CC1)N1N=CC[C@H]1c1ccccc1` [Example 19, (S)-(5-phenyl-4,5-dihydro-1H-pyrazol-1-yl)(1-phenyl-piperidin-4-yl)-methanone], for which the IC50 is 1 to 100 nM.

With `O=C(C1CCN(c2ccccn2)CC1)N1N=CC[C@H]1c1ccccc1` [Example 177, (S)-(5-phenyl-4,5-dihydro-1H-pyrazol-1-yl)(1-(pyridin-2-yl)piperidin-4-yl)methanone], the IC50 is 1 to 100 nM.

In the case of `Cc1ccccc1C1CC=NN1C(=O)C(C)(C)C` (centres unmarked) [Example 60, 2,2-dimethyl-1-(5-(o-tolyl)-4,5-dihydro-1H-pyrazol-1-yl)propan-1-one], the IC50 was 1 to 100 nM.

Take `CC1=NN(C(=O)C(C)(C)C)C(c2ccccc2)C1` (centres unmarked) [Example 81, 2,2-dimethyl-1-(3-methyl-5-phenyl-4,5-dihydro-1H-pyrazol-1-yl)-propan-1-one]: the IC50 is ~631 nM.

Turning to `Cc1ccc(C2CC=NN2C(=O)C(C)(C)C)c(F)c1` (centres unmarked) [Example 53, 1-(5-(2-fluoro-4-methylphenyl)-4,5-dihydro-1H-pyrazol-1-yl)-2,2-dimethyl-propan-1-one], the IC50 was 1 to 100 nM.

Regarding `O=C(C1CCN(c2ncc(F)cn2)CC1)N1N=CCC1c1cncc(F)c1` (centres unmarked) [Example 9], the IC50 is 1 to 100 nM.

With `O=C(C1CCN(c2ncc(F)cn2)CC1)N1N=CCC1c1ccc2c(c1)CCC2` (centres unmarked) [Example 184, (5-(2.3-dihydro-1H-inden-5-yl)-4,5-dihvdro-1H-pyrazol-1-yl)(1-(5-fluoropyrimidin-2-yl)piperidin-4-yl)methanone], the IC50 is 1 to 100 nM.

Take `CC(C)(C)C(=O)N1N=CCC1c1ccc(Cl)cc1` (centres unmarked) [Example 65, 1-(5-(4-chloro-phenyl)-4,5-dihydro-1H-pyrazol-1-yl)-2,2-dimethyl-propan-1-one]: the IC50 was 1 to 100 nM.

With `O=C(C1CCN(c2ccccc2)CC1)N1N=CCC1c1ccccc1` (centres unmarked) [Example 18, (5-phenyl-4,5-dihydro-1H-pyrazol-1-yl)(1-phenylpiperidin-4-yl)-methanone], the IC50 is 1 to 100 nM.

Consider `O=C(c1cccs1)N1N=CCC1c1ccccc1` (centres unmarked) [Example 174, (5-phenyl-4,5-dihydro-1H-pyrazol-1-yl)(thiophen-2-yl)methanone 2,2,2-trifluoroacetate], for which the IC50 was ~501 nM.

Regarding `O=C(c1ccon1)N1CCC(C(=O)N2N=CCC2c2ccccc2)CC1` (centres unmarked) [Example 153, isoxazol-3-yl(4-(5-phenyl-4,5-dihydro-1H-pyrazole-1-carbonyl)piperidin-1-yl)methanone], the IC50 was 1 to 100 nM.

With `CC(C)(C)C(=O)N1N=CCC1c1cccc(Cl)c1` (stereo not drawn) [Example 43, 1-(5-(3-chlorophenyl)-4,5-dihydro-1H-pyrazol-1-yl)-2,2-dimethyl propan-l-one], the IC50 is 1 to 100 nM.

Turning to `Cn1cccc1C(=O)N1CCC(C(=O)N2N=CCC2c2ccccc2)CC1` (centres unmarked) [Example 175, (1-methyl-1H-pyrrol-2-yl)(4-(5-phenyl-4,5-dihydro-1H-pyrazole-1-carbonyl)piperidin-1-yl)methanone 2,2,2-trifluoroacetalc], the IC50 was 1 to 100 nM.

In the case of `Cc1ccc(C2CC=NN2C(=O)C(C)(C)C)cc1F` (centres unmarked) [Example 54, 1-(5-(3-fluoro-4-methylphenyl)-4,5-dihydro-1H-pyrazol-1-yl)-2,2-dimethyl-propan-1-one], the IC50 was 1 to 100 nM.

Regarding `O=C(C1CCN(c2ncc(F)cn2)CC1)N1N=CCC1c1ccccc1` (centres unmarked) [Example 6, (1-(5-fluoropyrimidin-2-yl)piperidin-4-yl)(5-phenyl-4,5-dihydro-1H-pyrazol-1-yl)methanone], the IC50 was 1 to 100 nM.

For `O=C(C1CCN(c2ncc(F)cn2)CC1)N1N=CC[C@H]1c1cncc(F)c1` [Example 10, (S)-(5-(5-fluoropyridin-3-yl)-4,5-dihydro-1H-pyrazol-1-yl)(1-(5-fluoro-pyrimidin-2-yl)piperidin-4-yl)methanone], the IC50 is 1 to 100 nM.

With `O=C(c1ccns1)N1CCC(C(=O)N2N=CCC2c2ccccc2)CC1` (centres unmarked) [Example 125, isothiazol-5-yl(4-(5-phenyl-4,5-dihydro-1H-pyrazole-1-carbonyl)piperidin-1-yl)methanone], the IC50 was 1 to 100 nM.

Regarding `O=C(C1CCCC1)N1N=CCC1c1ccccc1` (centres unmarked) [Example 22, cyclopentyl(5-phenyl-4,5-dihydro-1H-pyrazol-1-yl)methanone], the IC50 was 1 to 100 nM.

As for `Cc1cc(F)cc(C2CC=NN2C(=O)C(C)(C)C)c1` (centres unmarked) [Example 76, 1-(5-(3-fluoro-5-methylphenyl)-4,5-dihydro-1H-pyrazol-1-yl)-2,2-dimethyl-propan-1-one], the IC50 was 1 to 100 nM.

Consider `O=C(c1cscn1)N1CCC(C(=O)N2N=CCC2c2ccccc2)CC1` (centres unmarked) [Example 154, (5-phenyl-4,5-dihydro-1H-pyrazol-1-yl)(1-(thiazole-4-carbonyl)piperidin-4-yl)methanone], for which the IC50 was 1 to 100 nM.

On to `O=C(c1cccnc1)N1N=CCC1c1ccccc1` (centres unmarked) [Example 209], for which the IC50 is ~2000 nM.

Regarding `O=C(C1CCN(c2ncc(F)cn2)CC1)N1N=CCC1c1ccc(OC(F)F)cc1` (stereo not drawn) [Example 185, (5-(4-(difluoromethoxy)phenyl)-4,5-dihydro-1H-pyrazol-1-yl)(l-(5-fluoropyrimidin-2-yl)piperidin-4-yl)methanone], the IC50 is 1 to 100 nM.

Regarding `O=C(c1ccc(F)cc1F)N1CCC(C(=O)N2N=CCC2c2ccccc2)CC1` (centres unmarked) [Example 131, (1-(2,4-difluorobenzoyl)piperidin-4-yl)(5-phenyl-4,5-dihydro-1H-pyrazol-1-yl)-methanone], the IC50 is 1 to 100 nM.

In the case of `O=C(c1ccccc1)N1N=CCC1c1ccccc1` (centres unmarked) [Example 64, phenyl(5-phenyl-4,5-dihydro-1H-pyrazol-1-yl)-methanone 2,2,2-trifluoroacetate], the IC50 is ~316 nM.

In the case of `O=C(c1cocn1)N1CCC(C(=O)N2N=CCC2c2ccccc2)CC1` (centres unmarked) [Example 114, oxazol-4-yl(4-(5-phenyl-4,5-dihydro-1H-pyrazole-1-carbonyl)piperidin-1-yl)methanone], the IC50 was 1 to 100 nM.

(Values after US10590085B2, “Heterocyclic amides as kinase inhibitors” (GlaxoSmithKline Intellectual Property Development Limited, priority 2015, dated 2020).)
